Where a name gives a salt, the structure may show the parent alone.
Tests used:
Aurora1 (Aurora-B) = biological target: T1, Aurora1 (Aurora-B) (Homo sapiens, UniProt Q96GD4); test: Aurora 1 (Aurora B) kinase radioactivity scintillation assay using nickel chelate Flash plates; assay type: biochemical; settings: 10 nM Aurora-B (co expressed with C3 fragment of INCEP), 500 nM NuMA substrate, 1 μM ATP with [33P] ATP, 5 mM MgCl2, 30 minutes, 37° C.
T1 construct: Aurora-B: the full length protein (His tagged in N-terminal) has been co expressed in SF9 cells; poly-histidine (N); made in house; host or cells: SF9 cells
T1 sequence (Q96GD4 whole entry, species assumed, the tested form may be a part): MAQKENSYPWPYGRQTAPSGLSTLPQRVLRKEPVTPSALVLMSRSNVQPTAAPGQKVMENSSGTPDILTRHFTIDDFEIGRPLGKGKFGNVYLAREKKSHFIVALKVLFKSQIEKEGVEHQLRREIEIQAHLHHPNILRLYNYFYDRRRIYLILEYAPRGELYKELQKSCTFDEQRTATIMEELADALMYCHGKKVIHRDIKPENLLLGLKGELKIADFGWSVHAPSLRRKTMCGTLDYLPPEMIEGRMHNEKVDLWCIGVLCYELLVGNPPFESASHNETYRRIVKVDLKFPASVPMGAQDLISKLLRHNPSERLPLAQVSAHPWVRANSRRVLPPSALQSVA
T1 sequence (Q9NQS7 821-918 partner limits assumed, species assumed): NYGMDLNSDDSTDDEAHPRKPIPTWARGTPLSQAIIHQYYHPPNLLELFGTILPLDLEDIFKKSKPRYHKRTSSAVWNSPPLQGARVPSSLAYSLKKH
Method in brief: (§1)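 10 nM Aurora-B or Aurora-A with 500 nM NuMA-His substrate, 1 μM ATP plus [³³P]ATP, in 50 mM NaCl, 1 mM DTT and 5 mM (B) or 10 mM (A) MgCl2, 30 min at 37° C on nickel-chelate plates. Incorporated ³³P counted after washing, background-subtracted; IC50 fitted from % inhibition versus concentration.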

Aurora2 (Aurora-A) = biological target: T2, Aurora2 (Aurora-A) (Homo sapiens, UniProt O14965); test: Aurora 2 (Aurora A) kinase radioactivity scintillation assay using nickel chelate Flash plates; assay type: biochemical; settings: 10 nM Aurora-A, 500 nM NuMA substrate, 1 μM ATP with [33P] ATP, 10 mM MgCl2, 30 minutes, 37° C.
T2 construct: Aurora-A: the full length recombinant protein including an N-terminal poly-histidine tail has been expressed in E. coli; poly-histidine (N); made in house; host or cells: E. coli
T2 sequence (O14965 1-403): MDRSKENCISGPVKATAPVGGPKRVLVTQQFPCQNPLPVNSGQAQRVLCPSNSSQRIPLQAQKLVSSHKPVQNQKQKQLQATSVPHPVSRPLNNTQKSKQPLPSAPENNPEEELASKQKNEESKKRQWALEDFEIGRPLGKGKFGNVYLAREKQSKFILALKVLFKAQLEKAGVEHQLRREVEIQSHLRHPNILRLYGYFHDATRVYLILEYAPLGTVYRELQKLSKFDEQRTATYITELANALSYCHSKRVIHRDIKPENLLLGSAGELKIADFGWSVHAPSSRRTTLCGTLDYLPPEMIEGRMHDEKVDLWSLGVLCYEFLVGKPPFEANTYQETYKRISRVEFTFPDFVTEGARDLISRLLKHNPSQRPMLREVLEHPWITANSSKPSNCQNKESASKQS
Method in brief: as §1

Row | Compound | IC50 (Aurora1 (Aurora-B)) [µM] | melting point [°C] | IC50 (Aurora2 (Aurora-A)) [µM]
1 | O=C1CC(c2ccccc2)CC2=C1C(c1ccc(Sc3nc4ccccc4[nH]3)o1)c1c[nH]nc1N2 (stereo not shown) [Example 29, 4-[5-(1H-Benzimidazol-2-ylsulfanyl)-furan-2-yl]-7-phenyl-2,4,6,7,8,9-hexahydro-pyrazolo[3,4-b]quinolin-5-one; compound with trifluoro-acetic acid] | 0.036 |  | 0.1
2 | CCOC(=O)c1[nH]cc2c1NC1=C(C(=O)CNC1)C2c1ccc(Sc2nc3cc(F)c(F)cc3[nH]2)o1 (stereo not shown) [Example 115, 9-[5-(5,6-Difluoro-1H-benzimidazol-2-ylsulfanyl)-furan-2-yl]-8-oxo-4,5,6,7,8,9-hexahydro-2H-pyrrolo[3,4-b][1,7]naphthyridine-3-carboxylic acid ethyl ester] | 0.008 | 190 to 196 | 0.048
3 | O=C1CCCC2=C1C(c1ccc(Sc3nc4cc(Cl)c(Cl)cc4[nH]3)o1)c1c[nH]nc1N2 (stereo not shown) [Example 85, 4-[5-(5,6-Dichloro-1H-benzimidazol-2-ylsulfanyl)-furan-2-yl]-2,4,6,7,8,9-hexahydro-pyrazolo[3,4-b]quinolin-5-one; compound with trifluoro-acetic acid] | 0.009 |  | 0.022
4 | CCOC(=O)c1[nH]cc2c1NC1=C(C(=O)CCC1)C2c1cnc(Sc2nc3ccccc3[nH]2)s1 (stereo not shown) [Example 118, 9-[2-(1H-Benzimidazol-2-ylsulfanyl)-thiazol-5-yl]-8-oxo-4,5,6,7,8,9-hexahydro-2H-pyrrolo[3,4-b]quinoline-3-carboxylic acid ethyl ester] |  | 194 | 
5 | O=C1CNCC2=C1C(c1ccc(Sc3nc4ccccc4[nH]3)o1)c1c[nH]nc1N2CC(O)CN1CCOCC1 (stereo not shown) [Example 52, 4-[5-(1H-Benzimidazol-2-ylsulfanyl)-furan-2-yl]-9-(2-hydroxy-3-morpholin-4-yl-propyl)-2,4,6,7,8,9-hexahydro-pyrazolo[3,4-b]-1,7-naphthyridin-5-one; compound with trifluoro-acetic acid] | 0.145 |  | 1.94
6 | Cc1nc(Sc2ccc(C3C4=C(CC(C)(C)CC4=O)Nc4n[nH]cc43)o2)[nH]c1C (stereo not shown) [Example 99, 4-[5-(4,5-Dimethyl-1H-imidazol-2-ylsulfanyl)-furan-2-yl]-7,7-dimethyl-2,4,6,7,8,9-hexahydro-pyrazolo[3,4-b]quinolin-5-one] | 0.124 |  | 0.135
7 | Cc1ccc2[nH]c(Sc3ccc(C4C5=C(CNCC5=O)Nc5n[nH]cc54)o3)nc2c1 (stereo not shown) [Example 71, 4-[5-(5-Methyl-1H-benzimidazol-2-ylsulfanyl)-furan-2-yl]-2,4,6,7,8,9-hexahydro-pyrazolo[3,4-b]-1,7-naphthyridin-5-one; compound with trifluoro-acetic acid] | 0.015 |  | 0.187
8 | CCOC(=O)c1[nH]cc2c1NC1=C(C(=O)CCC1)C2c1ccc(Sc2nc3cccnc3[nH]2)o1 (stereo not shown) [Example 112, 9-[5-(3H-Imidazo[4,5-b]pyridin-2-ylsulfanyl)-furan-2-yl]-8-oxo-4,5,6,7,8,9-hexahydro-2H-pyrrolo[3,4-b]quinoline-3-carboxylic acid ethyl ester] | 0.012 | 190 to 202 | 
9 | O=C1CCCC2=C1C(c1ccc(Sc3nc4cc(OC(F)F)ccc4[nH]3)o1)c1c[nH]nc1N2 (stereo not shown) [Example 76, 4-[5-(5-Difluoromethoxy-1H-benzimidazol-2-ylsulfanyl)-furan-2-yl]-2,4,6,7,8,9-hexahydro-pyrazolo[3,4-b]quinolin-5-one; compound with trifluoro-acetic acid] | 0.009 |  | 0.046

More lines, in order of falling IC50 (Aurora1 (Aurora-B)), values ahead:

Row | IC50 (Aurora1 (Aurora-B)) [µM] | melting point [°C] | IC50 (Aurora2 (Aurora-A)) [µM] | Compound
10 | 0.501 | 248 | 1.25 | CCOC(=O)c1[nH]cc2c1NC1=C(C(=O)CNC1)C2c1ccc(Sc2nc3cc(OC)ccc3[nH]2)o1 (stereo not shown) [Example 111, 9-[5-(6-Methoxy-1H-benzimidazol-2-ylsulfanyl)-furan-2-yl]-8-oxo-4,5,6,7,8,9-hexahydro-2H-pyrrolo[3,4-b][1,7]naphthyridine-3-carboxylic acid ethyl ester]
11 | 0.194 |  | 0.67 | CC1(C)CC(=O)C2=C(C1)Nc1n[nH]cc1C2c1ccc(Sc2nc3cc(Cl)ccc3o2)o1 (stereo not shown) [Example 90, 4-[5-(5-Chloro-benzoxazol-2-ylsulfanyl)-furan-2-yl]-7,7-dimethyl-2,4,6,7,8,9-hexahydro-pyrazolo[3,4-b]quinoline-5-one]
12 | 0.023 |  | 0.058 | CC1(C)CC(=O)C2=C(C1)Nc1n[nH]cc1C2c1ccc(Sc2nc3cc(C(F)(F)F)ccc3[nH]2)o1 (stereo not shown) [Example 96, 4-[5-(5-Trifluoromethyl-1H-benzoimidazol-2-ylsulfanyl)-furan-2-yl]-7,7-dimethyl-2,4,6,7,8,9-hexahydro-pyrazolo[3,4-b]quinolin-5-one]
13 | 0.016 |  | 0.131 | O=C1CNCC2=C1C(c1ccc(Sc3nc4cc(F)cc(F)c4[nH]3)o1)c1c[nH]nc1N2 (stereo not shown) [Example 145, 4-[5-(5,7-Difluoro-1H-benzimidazol-2-ylsulfanyl)-furan-2-yl]-2,4,6,7,8,9-hexahydro-pyrazolo[3,4b]-1,7-naphthyridin-5-one hydrochloride]
14 | 0.008 | 140 | 0.021 | CCOC(=O)c1[nH]cc2c1NC1=C(C(=O)CCC1)C2c1ccc(Sc2nc3cc(OC)ccc3[nH]2)o1 (stereo not shown) [Example 110, 9-[5-(5-Methoxy-1H-benzimidazol-2-ylsulfanyl)-furan-2-yl]-8-oxo-4,5,6,7,8,9-hexahydro-2H-pyrrolo[3,4-b]quinoline-3-carboxylic acid ethyl ester]
15 | 0.006 | 180 | 0.054 | CCOC(=O)c1[nH]cc2c1NC1=C(C(=O)CCC1)C2c1ccc(Sc2nc3cc(Cl)c(Cl)cc3[nH]2)o1 (stereo not shown) [Example 116, 9-[5-(5,6-Dichloro-1H-benzimidazol-2-ylsulfanyl)-furan-2-yl]-8-oxo-4,5,6,7,8,9-hexahydro-2H-pyrrolo[3,4-b]quinoline-3-carboxylic acid ethyl ester]
16 | 0.006 |  | 0.041 | CCOC(=O)c1[nH]cc2c1NC1=C(C(=O)CCC1)C2c1ccc(Sc2nc3cc(F)c(Cl)cc3[nH]2)o1 (stereo not shown) [Example 146, 9-[5-(6-Chloro-5-fluoro-1H-benzimidazol-2-ylsulfanyl)-furan-2-yl]-8-oxo-4,5,6,7,8,9-hexahydro-2H-pyrrolo[3,4-b]quinoline-3-carboxylic acid ethyl ester]
17 | 0.005 |  | 0.02 | CC1(C)CCC2=C(C1=O)C(c1ccc(Sc3nc4ccccc4[nH]3)o1)c1c[nH]nc1N2 (stereo not shown) [Example 30, 4-[5-(1H-Benzimidazol-2-ylsulfanyl)-furan-2-yl]-6,6-dimethyl-2,4,6,7,8,9-hexahydro-pyrazolo[3,4-b]quinolin-5-one; compound with trifluoro-acetic acid]

— patent publication US8163768B2, “1,4-dihydropyridine-fused heterocycles, process for preparing the same, use and compositions containing them” (Aventis Pharma S.A.., priority 2005, dated 2012)
